We go through 31 compounds from patent publication US20110105509A1 (Wyeth, LLC, priority 2009, published 2011).

The target of this test is T1, CRTH2 (Homo sapiens, UniProt Q9Y5Y4).
T1 construct: expressed in transfected cells; host or cells: CHO cells
T1 sequence (Q9Y5Y4 1-395): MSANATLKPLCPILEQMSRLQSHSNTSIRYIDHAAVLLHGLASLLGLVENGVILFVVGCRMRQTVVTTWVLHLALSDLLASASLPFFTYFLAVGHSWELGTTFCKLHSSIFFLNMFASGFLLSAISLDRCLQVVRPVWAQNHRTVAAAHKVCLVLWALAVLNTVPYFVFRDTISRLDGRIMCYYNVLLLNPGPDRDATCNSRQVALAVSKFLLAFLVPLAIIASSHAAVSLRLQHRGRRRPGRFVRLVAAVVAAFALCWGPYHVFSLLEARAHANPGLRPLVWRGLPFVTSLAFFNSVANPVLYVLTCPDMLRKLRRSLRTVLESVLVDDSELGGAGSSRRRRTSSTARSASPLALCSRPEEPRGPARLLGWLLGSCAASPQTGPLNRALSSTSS
Briefly: FRET based competitive immunoassay (cAMP) in CRTH2 expressing CHO cells. The following applies: CRTH2 expressing CHO cells incubated with forskolin and PGD2; Eu3+ cryptate-labeled anti-cAMP and d2-labeled cAMP. In kind it is cell-based. How it is done:
FRET Assay: To evaluate potency compounds were tested in a FRET based competitive immunoassay in which CRTH2 expressing CHO cells were incubated in the presence of forskolin and PGD2 along with Eu3+ cryptate-labeled anti-cAMP and d2-labeled cAMP.
By IC50 is commonly meant the point on the concentration scale where inhibition reaches its midpoint. The low end stands for higher potency, the high end for lower potency. The compound `Cc1c(-c2ccc(=O)n(Cc3cc(F)cc(F)c3)c2)c2cc(Cl)ccc2n1CC(=O)O` [Example 294, 2-(5-Chloro-3-(1-(3,5-difluorobenzyl)-6-oxo-1,6-dihydropyridin-3-yl)-2-methyl-1H-indol-1-yl)acetic acid] displayed an IC50 of 2 nM. Compound `Cc1c(-c2nn(Cc3ccccc3)c(=O)c3ccccc23)c2cc(F)cc(F)c2n1CC(=O)O` [Example 244, 2-(3-(3-benzyl-4-oxo-3,4-dihydrophthalazin-1-yl)-5,7-difluoro-2-methyl-1H-indol-1-yl)acetic acid] registered an IC50 of 60 nM. In the case of `Cc1c(-c2nn(Cc3ccc4ccccc4n3)c(=O)c3ccccc23)c2cc(Cl)ccc2n1CC(=O)O` [Example 103, 2-(5-chloro-2-methyl-3-(4-oxo-3-(quinolin-2-ylmethyl)-3,4-dihydro-phthalazin-1-yl)-1H-indol-1-yl)acetic acid] it was 11 nM. For `COc1ccc2c(c1)c(-c1nn(Cc3ccccc3)c(=O)c3ccccc13)c(C)n2CC(=O)O` [Example 16, 2-(3-(3-Benzyl-4-oxo-3,4-dihydrophthalazin-1-yl)-5-methoxy-2-methyl-1H-indol-1-yl)acetic acid], the IC50 turned out to be 31 nM. `Cc1c(-c2nn(Cc3ccccc3)c(=O)c3ccccc23)c2cc(Cl)cc(Cl)c2n1CC(=O)O` [Example 245, 2-(3-(3-benzyl-4-oxo-3,4-dihydrophthalazin-1-yl)-5,7-dichloro-2-methyl-1H-indol-1-yl)acetic acid]: the IC50 came out at 587 nM. The compound `Cc1c(-c2nn(Cc3ccc(Cl)cc3)c(=O)c3ccccc23)c2cc(F)ccc2n1CC(=O)O` [Example 4, 2-(3-(3-(4-Chlorobenzyl)-4-oxo-3,4-dihydropthalazin-1-yl)-5-fluoro-2-methyl-1H-indol-1-yl)acetic acid] came in with an IC50 of 9 nM. `Cc1c(-c2cn(CC(C)(C)O)c(=O)c3ccccc23)c2cc(F)ccc2n1CC(=O)O` [Example 254, 2-(5-fluoro-3-(2-(2-hydroxy-2-methylpropyl)-1-oxo-1,2-dihydroisoquinolin-4-yl)-2-methyl-1H-indol-1-yl)acetic acid] returned a 50% inhibitory concentration (IC50) of 15 nM. In the case of `Cc1c(Cc2ccc(=O)n(Cc3ccc(F)cc3F)c2)c2cc(Cl)ccc2n1CC(=O)O` [Example 42, 2-(5-Chloro-3-((1-(2,4-difluorobenzyl)-6-oxo-1,6-dihydropyridin-3-yl)-methyl)-2-methyl-1H-indol-1-yl)acetic acid], the IC50 was found to be 7 nM.

`Cc1c(-c2nn(CC(F)(F)F)c(=O)c3ccccc23)c2cc(F)ccc2n1CC(=O)O` [Example 124, 2-(5-fluoro-2-methyl-3-(4-oxo-3-(2,2,2-trifluoroethyl)-3,4-dihydro-phthalazin-1-yl)-1H-indol-1-yl)acetic acid] came in with a 50% inhibitory concentration (IC50) of 8 nM. For `Cc1c(Cc2ccc(=O)n(Cc3c(F)cccc3F)c2)c2cc(F)ccc2n1CC(=O)O` [Example 38, 2-(3-((1-(2,6-Difluorobenzyl)-6-oxo-1,6-dihydropyridin-3-yl)methyl)-5-fluoro-2-methyl-1H-indol-1-yl)acetic acid], the concentration for half-maximal inhibition (IC50) came out at 7 nM. Turning to `Cc1c(-c2ccc(=O)n(Cc3cccc(F)c3F)c2)c2cc(F)ccc2n1CC(N)=O` [Example 301, 2-(3-(1-(2,3-difluorobenzyl)-6-oxo-1,6-dihydropyridin-3-yl)-5-fluoro-2-methyl-1H-indol-1-yl)acetamide], the IC50 is over 2000 nM. On to `Cc1c(Cc2ccc(=O)n(Cc3cc(F)cc(F)c3)c2)c2ccccc2n1CC(=O)O` [Example 35, 2-(3-((1-(3,5-Difluorobenzyl)-6-oxo-1,6-dihydropyridin-3-yl)methyl)-2-methyl-1H-indol-1-yl)acetic acid], for which the IC50 was found to be 65 nM. As for `Cc1c(-c2ccc(=O)n(CCc3ccc(F)cc3)n2)c2ccccc2n1CC(=O)O` [Example 229, 2-(3-(1-(4-fluorophenethyl)-6-oxo-1,6-dihydropyridazin-3-yl)-2-methyl-1H-indol-1-yl)acetic acid], the IC50 stood at 136 nM.

For the compound `Cc1c(-c2nn(Cc3ccc4ccccc4n3)c(=O)c3ccccc23)c2ccccc2n1CC(=O)O` [Example 169, 2-(2-methyl-3-(4-oxo-3-(quinolin-2-ylmethyl)-3,4-dihydrophthalazin-1-yl)-1H-indol-1-yl)acetic acid], the IC50 amounted to 14 nM. Regarding `Cc1c(Cc2ccc(=O)n(Cc3ccc(F)cc3)c2)c2cc(F)ccc2n1CC(=O)O` [Example 41, 2-(5-Fluoro-3-((1-(4-fluorobenzyl)-6-oxo-1,6-dihydropyridin-3-yl)methyl)-2-methyl-1H-indol-1-yl)acetic acid], the 50% inhibitory concentration (IC50) turned out to be 3 nM. `Cc1c(-c2cn(CCC(C(F)(F)F)C(F)(F)F)c(=O)c3ccccc23)c2cc(F)ccc2n1CC(=O)O` [Example 96, 2-(5-fluoro-2-methyl-3-(1-oxo-2-(4,4,4-trifluoro-3-(trifluoromethyl)butyl)-1,2-dihydroisoquinolin-4-yl)-1H-indol-1-yl)acetic acid] gave an IC50 of 296 nM. In the case of `Cc1c(-c2ccc(=O)n(C)n2)c2cc(Cl)ccc2n1CC(=O)O` [Example 149, 2-(5-chloro-2-methyl-3-(1-methyl-6-oxo-1,6-dihydropyridazin-3-yl)-1H-indol-1-yl)acetic acid], the IC50 turned out to be 2150 nM. `Cc1c(-c2nn(Cc3ccccc3F)c(=O)c3ccccc23)c2cc(F)ccc2n1CC(=O)O` [Example 113, 2-(5-fluoro-3-(3-(2-fluorobenzyl)-4-oxo-3,4-dihydrophthalazin-1-yl)-2-methyl-1H-indol-1-yl)acetic acid] registered an IC50 of 14 nM. In the case of `Cc1c(-c2ccc(=O)n(Cc3ccc(F)cc3)c2)c2cc(F)ccc2n1CC(=O)O` [Example 267, 2-(5-fluoro-3-(1-(4-fluorobenzyl)-6-oxo-1,6-dihydropyridin-3-yl)-2-methyl-1H-indol-1-yl)acetic acid] it was 6 nM.

As to `Cc1c(-c2ccc(=O)n(CCCC(F)(F)F)c2)c2cc(F)ccc2n1CC(=O)NS(=O)(=O)C1CC1` [Example 317, N-(cyclopropylsulfonyl)-2-(5-fluoro-2-methyl-3-(6-oxo-1-(4,4,4-trifluorobutyl)-1,6-dihydropyridin-3-yl)-1H-indol-1-yl)acetamide], the IC50 is over 1000 nM.

`Cc1c(-c2nn(Cc3ccccc3)c(=O)c3ccccc23)c2cc(S(C)(=O)=O)ccc2n1CC(=O)O` [Example 215, 2-(3-(3-benzyl-4-oxo-3,4-dihydrophthalazin-1-yl)-2-methyl-5-(methylsulfonyl)-1H-indol-1-yl)acetic acid] showed an IC50 of 27 nM. Consider `Cc1c(Cc2ccc(=O)n(Cc3cccc(F)c3F)c2)c2ccccc2n1CC(=O)O` [Example 29], for which the IC50 was found to be 72 nM.

`Cc1c(-c2ccc(=O)n(Cc3cccc(F)c3F)c2)c2cc(F)ccc2n1CC(=O)N(C)C` [Example 300, 2-(3-(1-(2,3-difluorobenzyl)-6-oxo-1,6-dihydropyridin-3-yl)-5-fluoro-2-methyl-1H-indol-1-yl)-N,N-dimethylacetamide] showed a 50% inhibitory concentration (IC50) of over 2000 nM. For the compound `Cc1c(-c2nn(Cc3ccc(S(C)(=O)=O)cc3)c(=O)c3ccccc23)c2ccccc2n1CC(=O)O` [Example 168, 2-(2-methyl-3-(3-(4-(methylsulfonyl)benzyl)-4-oxo-3,4-dihydrophthalazin-1-yl)-1H-indol-1-yl)acetic acid], the IC50 worked out at 62 nM.

The compound `Cc1c(Cc2ccc(=O)n(Cc3ccc(F)cc3)n2)c2ccccc2n1CC(=O)O` [Example 76, 2-(3-((1-(4-fluorobenzyl)-6-oxo-1,6-dihydropyridazin-3-yl)methyl)-2-methyl-1H-indol-1-yl)acetic acid] registered a half-inhibitory concentration (IC50) of 16 nM. `Cc1c(-c2ccc(=O)n(CCCC(F)(F)F)n2)c2cc(F)ccc2n1CC(=O)O` [Example 163, 2-(5-fluoro-2-methyl-3-(6-oxo-1-(4,4,4-trifluorobutyl)-1,6-dihydropyridazin-3-yl)-1H-indol-1-yl)acetic acid] gave an IC50 of 865 nM. Compound `Cc1c(-c2nn(CC(F)(F)F)c(=O)c3ccccc23)c2cc(Cl)ccc2n1CC(=O)O` [Example 109, 2-(5-chloro-2-methyl-3-(4-oxo-3-(2,2,2-trifluoroethyl)-3,4-dihydro-phthalazin-1-yl)-1H-indol-1-yl)acetic acid] registered an IC50 of 42 nM.

The compound `Cc1c(-c2nn(Cc3ccc(F)cc3F)c(=O)c3ccccc23)c2cc(Cl)ccc2n1CC(=O)O` [Example 61, 2-(5-chloro-3-(3-(2,4-difluorobenzyl)-4-oxo-3,4-dihydrophthalazin-1-yl)-2-methyl-1H-indol-1-yl)acetic acid] gave an IC50 of 11 nM. With `Cc1c(-c2nn(Cc3cccnc3)c(=O)c3ccccc23)c2cc(F)ccc2n1CC(=O)O` [Example 135, 2-(5-fluoro-2-methyl-3-(4-oxo-3-(pyridin-3-ylmethyl)-3,4-dihydrophthalazin-1-yl)-1H-indol-1-yl)acetic acid], the IC50 was found to be 5 nM. On to `Cc1c(-c2nn(Cc3nc4cc(F)ccc4s3)c(=O)c3ccccc23)c2cc(F)ccc2n1CC(=O)O` [Example 114, 2-(5-fluoro-3-(3-((5-fluorobenzo[d]thiazol-2-yl)methyl)-4-oxo-3,4-dihydro-phthalazin-1-yl)-2-methyl-1H-indol-1-yl)acetic acid], for which the IC50 stood at 13 nM. In turn, `Cc1c(-c2nn(Cc3cccc(C(F)(F)F)c3)c(=O)c3ccccc23)c2cc(F)ccc2n1CC(=O)O` [Example 203, 2-(5-fluoro-2-methyl-3-(4-oxo-3-(3-(trifluoromethyl)benzyl)-3,4-dihydro-phthalazin-1-yl)-1H-indol-1-yl)acetic acid] registered an IC50 of 10 nM.
